Type in all cases: cell-based
Assay [1] has as its system Human tumor cell lines. Kind of assay: In vitro cell viability assays, free antifolate drugs, overall comparison. The following applies: for antifolate activity compared with talotrexin: Tables 1a-1d. Here is the method: Human tumor cell lines SK-BR-3, SW-620, A-549, BT-474, Jurkat Clone E6-1, AU-565, and SK-OV-3 were obtained from American Type Culture Collection (Rockville, MD, USA). FaDu, BxPC-3, HeLa, MV4-11, and RAJI cell lines were obtained from Deutsche Sammlung von Mikroorganismen und Zellkulturen ([…], Germany). Jurkat NucLight Red cells were obtained from Essen BioScience Inc. (Ann Arbor, MI, USA). SK-BR-3 and SK-OV-3 cells were cultured in McCoys 5A medium (Lonza; Walkersville, MD, USA) supplemented with 10% v/w Fetal Bovine Serum (FBS), Heat-inactivated (HI) (Gibco-Life Technologies; Carlsbad, CA) and 80 U/mL Pen/Strep (Gibco-Life Technologies), at 37° C. in a humidified incubator under 5% CO2 atmosphere. SW-620 cells were similarly maintained in RPMI 1640 medium (Lonza), containing 10% v/w FBS HI and 80 U/mL Pen/Strep. A-549 cells were similarly maintained in F-12K Nutrient Mixture (1×) (Gibco-Life Technologies) media supplemented with 80 U/mL Pen/Strep and 5% v/w FBS, which was Qualified (Q) (Gibco-Life Technologies). BT-474 and AU-565 cells were similarly maintained in RPMI 1640 medium (Lonza), containing 10% v/w FBS, which was Qualified (Q) (Gibco-Life Technologies), and 80 U/mL Pen/Strep. Jurkat Clone E6-1, BxPC-3, HeLa, MV4-11, and RAJI cells were similarly maintained in RPMI 1640 medium (Lonza), containing 10% v/w FBS HI and 80 U/mL Pen/Strep. Jurkat NucLight Red cells were similarly maintained in RPMI 1640 medium (Lonza), containing 10% v/w FBS HI, 80 U/mL Pen/Strep and 0.5 μg/mL Puromycin (Gibco-Life Technologies). FaDu cells were cultured in EMEM medium (Lonza) supplemented with 10% v/w FBS HI (Gibco-Life Technologies), 1× GlutaMAX (Gibco-Life Technologies), and 80 U/mL Pen/Strep (Gibco-Life Technologies), at 37° C. in a humidified incubator under 5% CO2 atmosphere.
Cells in complete growth medium were plated in 96-well plates (90 μL/well) and incubated at 37° C., 5% CO2 at the following cell densities: 6500 SK-BR-3, 4000 SW-620, 2500 A-549, 10000 BT-474, 3000 Jurkat Clone E6-1, 5000 AU-565, 1250 FaDu, 1250 BxPC-3, 1000 HeLa, 7500 MV4-11, 1000 RAJI, 3000 Jurkat NucLight Red, and 4000 SK-OV-3 cells per well. After an overnight incubation, 10 serial log 10 dilutions of the free drugs were made in DMSO (Sigma-Aldrich). These free drug dose-response curves were 10-times further diluted in complete growth medium. For the ADCs according to the invention 10 serial log 10 dilutions were made in complete growth medium. 10 μL of a composition comprising a free drug or an ADC according to the invention was added to the assay plate (final DMSO content for free drugs was 1%). […] Cell viability was assessed after 6 days using a luminescent assay kit (CellTiter-Glo™ (CTG), Promega Corporation) according to the manufacturer's instructions. Percentage cell survival was calculated by dividing the measured luminescence for each free drug or ADC according to the concentration with the average mean of untreated cells (1% or 0.1% DMSO control (for free drugs) or 100% complete growth medium (for ADCs)) multiplied by 100.
Curves were fitted by non-linear regression using the sigmoidal dose-response equation with variable slope (four parameters) using curve-fitting software (GraphPad Prism, version 9.4.0 for Windows, GraphPad, San Diego, CA or Electronic Laboratory Notebook (ELN) add-in BioAssay, version 19.1.0.0218, Perkin Elmer, Waltham, MA). Relative IC50 values were calculated as the concentration that gives a response halfway between bottom and top of the curve, when using a 4-parameter logistic fit. Data were reported as mean IC50 value of at least one experiment performed in duplicate.

The subject of assay [2] is SK-BR-3 cells. Kind of assay: In vitro cell viability assay (CellTiter-Glo, 6 days), SK-BR-3. The following applies: Homo sapiens, SK-BR-3, 144 h, free antifolate drug, Table 1a. On the procedure:
(§1) FaDu, BxPC-3, HeLa, MV4-11, and RAJI cell lines were obtained from Deutsche Sammlung von Mikroorganismen und Zellkulturen ([…], Germany). Jurkat NucLight Red cells were obtained from Essen BioScience Inc. (Ann Arbor, MI, USA). SK-BR-3 and SK-OV-3 cells were cultured in McCoys 5A medium (Lonza; Walkersville, MD, USA) supplemented with 10% v/w Fetal Bovine Serum (FBS), Heat-inactivated (HI) (Gibco-Life Technologies; Carlsbad, CA) and 80 U/mL Pen/Strep (Gibco-Life Technologies), at 37° C. in a humidified incubator under 5% CO2 atmosphere. SW-620 cells were similarly maintained in RPMI 1640 medium (Lonza), containing 10% v/w FBS HI and 80 U/mL Pen/Strep. […]
(§2) After an overnight incubation, 10 serial log 10 dilutions of the free drugs were made in DMSO (Sigma-Aldrich). […] Cell viability was assessed after 6 days using a luminescent assay kit (CellTiter-Glo™ (CTG), Promega Corporation) according to the manufacturer's instructions. Percentage cell survival was calculated by dividing the measured luminescence for each free drug or ADC according to the concentration with the average mean of untreated cells (1% or 0.1% DMSO control (for free drugs) or 100% complete growth medium (for ADCs)) multiplied by 100. […]
In general terms: In ATP-based viability assays light output follows the ATP content of the culture.

Assay [3] has as its system SW-620 cells. Nature of the assay: In vitro cell viability assay (CellTiter-Glo, 6 days), SW-620. The following applies: Homo sapiens, SW-620, 144 h, free antifolate drug, Table 1a. Here is the method: as §1, §2
Assay [4] deals with A-549 cells. Kind of assay: In vitro cell viability assay (CellTiter-Glo, 6 days), A-549. The following applies: Homo sapiens, A549, 144 h, free antifolate drug, Table 1a. Here is the method:
Human tumor cell lines SK-BR-3, SW-620, A-549, BT-474, Jurkat Clone E6-1, AU-565, and SK-OV-3 were obtained from American Type Culture Collection (Rockville, MD, USA). FaDu, BxPC-3, HeLa, MV4-11, and RAJI cell lines were obtained from Deutsche Sammlung von Mikroorganismen und Zellkulturen ([…], Germany). Jurkat NucLight Red cells were obtained from Essen BioScience Inc. (Ann Arbor, MI, USA). […]
Cells in complete growth medium were plated in 96-well plates (90 μL/well) and incubated at 37° C., 5% CO2 at the following cell densities: 6500 SK-BR-3, 4000 SW-620, 2500 A-549, 10000 BT-474, 3000 Jurkat Clone E6-1, 5000 AU-565, 1250 FaDu, 1250 BxPC-3, 1000 HeLa, 7500 MV4-11, 1000 RAJI, 3000 Jurkat NucLight Red, and 4000 SK-OV-3 cells per well. […] Cell viability was assessed after 6 days using a luminescent assay kit (CellTiter-Glo™ (CTG), Promega Corporation) according to the manufacturer's instructions. Percentage cell survival was calculated by dividing the measured luminescence for each free drug or ADC according to the concentration with the average mean of untreated cells (1% or 0.1% DMSO control (for free drugs) or 100% complete growth medium (for ADCs)) multiplied by 100. […]

The values that follow come from patent publication US20250114466A1, “ANTIFOLATE LINKER-DRUGS AND ANTIBODY-DRUG CONJUGATES” (BYONDIS B.V., priority 2021, published 2025).

As for `Nc1ccc(C(=O)NCCC[C@H](NC(=O)c2ccc(NCc3ccc4nc(N)nc(N)c4c3Cl)cc2)C(=O)O)c(-c2nnn[nH]2)c1` [XT110, (S)-5-(4-Amino-2-(1H-tetrazol-5-yl)benzamido)-2-(4-(((2,4-diamino-5-chloroquinazolin-6-yl)methyl)amino)benzamido)pentanoic acid], the “antifolate activity compared with XX35” value in assay [1] (5-chloroquinazoline-2,4-diamine instead of pteridine-2,4-diamine) is listed as “strongly increased the antifolate activity”.

In the case of `Nc1ccc(C(=O)NCCC[C@H](NC(=O)c2ccc(CCc3ccc4nc(N)nc(N)c4c3)cc2)C(=O)O)cc1` [XJ4, (S)-5-(4-Aminobenzamido)-2-(4-(2-(2,4-diaminoquinazolin-6-yl)ethyl)benzamido)pentanoic acid], the “antifolate activity compared with talotrexin” value in assay [1] is “less active than talotrexin”.

Consider `CN(Cc1cnc2nc(N)nc(N)c2n1)c1ccc(C(=O)N[C@@H](CCCNC(=O)c2ccc(N)cc2)C(=O)O)cc1` [XX12, (S)-5-(4-aminobenzamido)-2-(4-(((2,4-diaminopteridin-6-yl)methyl)(methyl)amino)benzamido)pentanoic acid], for which the “antifolate activity compared with talotrexin” value in assay [1] is given as “less active than talotrexin”.

As for `Nc1ccc(C(=O)NCCC[C@H](NC(=O)c2ccc(NCc3cnc4nc(N)nc(N)c4n3)cc2)C(=O)O)cc1` [XT35, (S)-5-(4-Aminobenzamido)-2-(4-(((2,4-diaminopteridin-6-yl)methyl)amino)benzamido) pentanoic acid], in assay [1], the “antifolate activity compared with talotrexin” value was “less active than talotrexin”.

`[N-]=[N+]=Nc1ccc(C(=O)NCCC[C@H](NC(=O)c2ccc(CCc3cnc4nc(N)nc(N)c4n3)cc2)C(=O)O)cc1` [XX5, (S)-5-(4-Azidobenzamido)-2-(4-(2-(2,4-diaminopteridin-6-yl)ethyl)benzamido) pentanoic acid]: the “antifolate activity compared with talotrexin” value in assay [1] was “less active than talotrexin”.

For the compound `Nc1ccc(C(=O)NCCC[C@H](NC(=O)c2ccc(CCc3cnc4nc(N)nc(N)c4n3)cc2)C(=O)O)cc1` [XX7, (S)-5-(4-Aminobenzamido)-2-(4-(2-(2,4-diaminopteridin-6-yl)ethyl)benzamido) pentanoic acid], the “antifolate activity compared with talotrexin” value in assay [1] is reported as “less active than talotrexin”.

For orientation: IC50 means the concentration that inhibits the measured activity by half. Read a high IC50 as weaker potency. Consider `Nc1nc(N)c2nc(CNc3ccc(C(=O)N[C@@H](CCCNC(=O)c4ccccc4C(=O)O)C(=O)O)cc3)cnc2n1` [Talotrexin], for which the IC50 was 1.83 nM in assay [2], 1.74 nM in assay [3] and 1.7 nM in assay [4].
